Assays:
Assay in all cases: relative viability (nuclei count vs DMSO), 5 days (fraction); higher = more cells survive
BAM7 + Alpelisib = compound: CCOC1=CC=CC=C1N=NC2=C(NN(C2=O)C3=NC(=CS3)C4=CC=CC=C4)C [BAM7] + Cc1nc(NC(=O)N2CCC[C@H]2C(N)=O)sc1-c1ccnc(C(C)(C)C(F)(F)F)c1 [Alpelisib] (partner 2 µM)
How it was run: (§1)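 Relative viability was taken as the ratio of nuclei in treated wells to nuclei in vehicle wells. Lung cancer cell lines in 1536-well plates received compounds by pin tool one day after seeding, either one drug alone or a fixed anchor-drug dose plus five library-drug doses (not always all listed) in √10 steps. Nuclei were counted on 4× images after 5 days of treatment, and values are medians of duplicate plates.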

[1] = compound: CCn1c(-c2nonc2N)nc2c(C#CC(C)(C)O)ncc(OC[C@H]3CCCNC3)c21 + C[C@@H](Oc1cc(-c2cnn(C3CCNCC3)c2)cnc1N)c1c(Cl)ccc(F)c1Cl [Crizotinib] (partner 1 µM)
How it was run: as §1

[2] = compound: CCn1c(-c2nonc2N)nc2c(C#CC(C)(C)O)ncc(OC[C@H]3CCCNC3)c21 + COc1cc2c(Oc3ccc(NC(=O)C4(C(=O)Nc5ccc(F)cc5)CC4)cc3F)ccnc2cc1OCCCN1CCOCC1 [Foretinib] (partner 0.25 µM)
How it was run: as §1

BAM7 + Dasatinib = compound: CCOC1=CC=CC=C1N=NC2=C(NN(C2=O)C3=NC(=CS3)C4=CC=CC=C4)C [BAM7] + Cc1nc(Nc2ncc(C(=O)Nc3c(C)cccc3Cl)s2)cc(N2CCN(CCO)CC2)n1 [Dasatinib] (partner 0.075 µM)
How it was run: as §1

Cell Line | relative viability (BAM7 + Alpelisib; first compound 0.5 µM) | relative viability (BAM7 + Alpelisib; first compound 5 µM) | relative viability (BAM7 + Alpelisib; first compound 15.81 µM) | relative viability (BAM7 + Alpelisib; first compound 50 µM) | relative viability ([1]; first compound 0.01 µM) | relative viability ([1]; first compound 0.03162 µM) | relative viability ([1]; first compound 0.1 µM) | relative viability ([1]; first compound 0.3162 µM) | relative viability ([1]; first compound 1 µM) | relative viability ([2]; first compound 0.01 µM) | relative viability ([2]; first compound 0.03162 µM) | relative viability ([2]; first compound 0.1 µM) | relative viability ([2]; first compound 0.3162 µM) | relative viability ([2]; first compound 1 µM) | relative viability (BAM7 + Dasatinib; first compound 0.5 µM) | relative viability (BAM7 + Dasatinib; first compound 5 µM) | relative viability (BAM7 + Dasatinib; first compound 15.81 µM) | relative viability (BAM7 + Dasatinib; first compound 50 µM)
HCC-366 | 0.403 | 0.318 | 0.324 | 0.322 | 0.505 | 0.644 | 0.59 | 0.501 | 0.534 | 0.931 | 0.99 | 0.975 | 0.907 | 0.965 | 0.67 | 0.675 | 0.708 | 0.717
HCC-827 | 1.03 | 0.97 | 1.01 | 1 | 0.884 | 0.917 | 0.879 | 0.865 | 0.882 | 1.02 | 1.09 | 1.01 | 1.06 | 1.02 | 0.29 | 0.234 | 0.313 | 0.264
HOP-62 | 0.921 | 0.826 | 0.901 | 0.797 | 0.769 | 0.978 | 0.929 | 0.874 | 0.888 | 1.08 | 1.13 | 1.08 | 0.985 | 1.16 | 0.636 | 0.727 | 0.601 | 0.649
IA-LM | 0.67 | 0.648 | 0.659 | 0.994 | 0.824 | 0.601 | 0.862 | 0.703 | 0.323 | 0.955 | 1.02 | 1.09 | 0.946 | 0.923 |  |  |  | 
LC-2-ad | 0.998 | 0.893 | 0.746 | 0.855 | 0.452 | 0.483 | 0.448 | 0.493 | 0.479 | 0.94 | 0.906 | 0.923 | 0.909 | 1.01 | 0.8 | 0.555 | 0.546 | 0.639
LCLC-97TM1 | 0.303 | 0.235 | 0.235 | 0.316 |  | 0.435 | 0.331 | 0.333 | 0.367 | 1.03 | 0.91 | 1.01 | 0.877 | 0.874 | 1.05 | 1.04 | 0.881 | 0.945
LCLC-103H | 0.998 | 0.837 | 1.08 | 0.984 | 0.964 | 1.07 | 1.05 | 1.11 | 1.02 | 0.792 | 0.981 | 0.749 | 0.736 | 0.847 | 0.46 | 0.512 | 0.523 | 0.523
LK-2 | 1.14 | 1.78 | 1.16 | 0.874 | 0.247 | 0.181 | 0.215 | 0.24 | 0.232 | 0.994 | 1.15 |  |  | 1.09 | 0.242 | 0.299 | 0.255 | 0.447
LOU-NH91 | 0.753 | 0.728 | 0.629 | 0.684 | 0.758 | 0.747 | 0.742 | 0.543 | 0.754 | 0.929 | 0.962 | 0.964 | 0.861 | 0.907 | 0.495 | 0.658 | 0.535 | 0.552
LU99A | 0.588 | 0.489 | 0.532 | 0.597 | 0.567 | 0.556 | 0.571 | 0.494 | 0.491 | 0.797 | 0.797 | 0.814 | 0.776 | 0.899 | 0.661 | 0.642 | 0.577 | 0.476
LXF-289 | 1.1 | 1.11 | 1.02 | 1.07 | 0.856 | 0.815 | 0.797 | 0.758 | 0.828 | 0.983 | 1.05 | 0.979 | 0.952 | 0.955 | 0.276 | 0.235 | 0.256 | 0.253
NCI-H23 | 0.743 | 0.782 | 0.656 | 0.723 | 0.477 | 0.572 | 0.444 | 0.48 | 0.417 | 0.971 | 1.15 | 1.06 | 0.918 | 0.916 | 0.892 | 0.813 | 0.732 | 0.868
NCI-H522 |  |  |  |  |  |  |  |  |  |  |  |  |  |  | 0.872 | 0.976 | 0.828 | 0.827
NCI-H1299 | 1.06 | 1.1 | 1.03 | 0.992 | 0.935 | 0.927 | 0.948 | 0.919 | 0.997 | 1.09 | 1.08 | 1.06 | 0.717 | 1.16 |  |  |  | 
NCI-H1395 | 1.23 | 1.04 | 1.04 | 1.24 |  |  |  |  |  | 0.945 | 0.922 | 0.945 | 0.871 | 0.818 | 0.41 | 0.445 | 0.357 | 0.465
NCI-H1623 |  |  |  |  |  |  |  |  |  | 0.855 | 0.849 | 0.793 | 0.882 | 0.676 | 0.576 | 0.56 | 0.573 | 0.641
NCI-H1650 |  |  |  |  | 0.964 | 1.06 | 0.924 | 0.971 | 1.07 | 1.07 | 1.01 | 1.3 | 0.933 | 1.02 | 0.338 | 0.278 | 0.277 | 0.337
NCI-H1703 | 0.316 | 0.322 | 0.291 | 0.36 | 0.465 | 0.656 | 0.59 | 0.482 | 0.376 | 0.333 | 0.313 | 0.347 | 0.248 | 0.356 |  |  |  | 
NCI-H1792 | 0.782 | 0.85 | 0.624 | 0.708 | 0.961 | 0.948 | 0.95 | 0.891 | 0.78 |  |  |  |  |  | 0.827 | 0.833 | 0.665 | 0.822
NCI-H1793 | 0.752 | 0.892 | 0.541 | 0.675 |  |  |  |  |  | 0.733 | 0.614 | 0.632 | 0.55 | 0.554 | 0.375 | 0.424 | 0.431 | 0.388
NCI-H2342 |  |  |  |  |  |  |  |  |  | 1.1 | 1.19 | 1.04 | 1.07 | 1.09 | 0.286 | 0.343 | 0.352 | 0.316
SW 900 |  |  |  |  |  |  |  |  |  | 0.92 | 0.887 | 0.875 | 0.798 | 0.768 | 0.358 | 0.398 | 0.711 | 0.656

— the supplement of paper PMC10307832
